Data set [1] can be described thus: Stability of crystalline material on storage (HPLC and XRPD). The conditions noted are these: for purity by HPLC after storage: decrease from 99%. Format: physicochemical.
Data set [2] is described as follows: Hygroscopicity by dynamic vapor sorption (DVS). Format: physicochemical. The conditions noted are these: 25° C. As to the method:
A quantity of the crystalline material was analyzed by dynamic vapor sorption (DVS). The sample was subjected to a ramping profile from 40-90% RH at 10% increments, maintaining the sample at each step until a stable weight had been achieved at 25° C. After completion of the sorption cycle, the sample was dried using the same procedure to 0% RH followed by a second sorption cycle back to 40% RH. Two cycles were performed overall. The weight change during the sorption/desorption cycles were plotted, allowing for the hygroscopic nature of the sample to be determined. Significant hysteresis was observed, with the material retaining much larger quantities of water during the second sorption cycle as shown in FIG. 10. […] The amount of water in the sample at 90% relative humidity corresponds to the pentahydrate of the material.

Where [3] appears, read: 40° C. at 75% relative humidity (RH) for one week.

With `C[C@H](Nc1cc(Cl)nc2c1cnn2[C@@H]1O[C@H](COP(=O)(O)CP(=O)(O)O)[C@@H](O)[C@H]1O)c1ccccc1F` [crystalline material, [({[(2R,3S,4R,5R)-5-(6-chloro-4-{[(1S)-1-(2-fluorophenyl)ethyl]amino}-1H-pyrazolo[3,4-b]pyridin-1-yl)-3,4-dihydroxyoxolan-2-yl]methoxy}(hydroxy)phosphoryl)methyl]phosphonic Acid], the crystallinity after storage entry in data set [1] (25° C. at 60% relative humidity (RH) for one week) is “no change in crystallinity”. For the same compound, in data set [1] (setting [3]), the “solid form by XRPD after storage” value was “conversion to the amorphous material” and the “purity by HPLC after storage” value is listed as 97.3%. In data set [1] (80° C. for one week), the “morphology by XRPD after storage” value is “no change in morphology” and the “purity by HPLC after storage” value stood at 97.4%. Also, the hygroscopic nature entry in data set [2] (DVS) was “hygroscopic”. In data set [2] (after two sorption/desorption cycles, 0-90% RH), the “XRPD of the sample post-DVS” value was “loss of crystallinity and regeneration of amorphous material”. Moreover, in data set [2] (at 90% relative humidity relative to 0% relative humidity), the “increase of water (weight) by DVS” value worked out at 13.2 % wt.

The values are drawn from US11819512B2, “Solid forms of a CD73 inhibitor and the use thereof” (ARCUS BIOSCIENCES, INC., priority 2018, dated 2023).
